Active and inactive are the calls of the source.
What was measured:
[1] = target: T1, Corticotropin-releasing factor receptor 2/Corticotropin-releasing factor-binding protein (Homo sapiens, UniProt P24387+Q13324); assay: activators of CRF receptor 2 with binding protein – uHTS hits, confirmation (AID 602473); assay type: functional; details: read-out: EC50_Mean
T1 sequence (Q13324 whole entry): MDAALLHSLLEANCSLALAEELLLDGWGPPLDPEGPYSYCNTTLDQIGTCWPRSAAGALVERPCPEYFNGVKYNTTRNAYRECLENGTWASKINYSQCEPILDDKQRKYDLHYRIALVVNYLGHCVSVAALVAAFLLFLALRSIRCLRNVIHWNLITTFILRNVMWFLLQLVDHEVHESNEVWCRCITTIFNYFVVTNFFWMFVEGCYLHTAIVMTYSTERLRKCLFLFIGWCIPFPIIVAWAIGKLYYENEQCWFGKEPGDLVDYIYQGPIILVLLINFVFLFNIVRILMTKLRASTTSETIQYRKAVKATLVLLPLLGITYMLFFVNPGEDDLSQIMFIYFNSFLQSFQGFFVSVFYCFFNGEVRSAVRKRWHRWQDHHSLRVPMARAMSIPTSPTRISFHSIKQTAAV
T1 sequence (P24387 whole entry): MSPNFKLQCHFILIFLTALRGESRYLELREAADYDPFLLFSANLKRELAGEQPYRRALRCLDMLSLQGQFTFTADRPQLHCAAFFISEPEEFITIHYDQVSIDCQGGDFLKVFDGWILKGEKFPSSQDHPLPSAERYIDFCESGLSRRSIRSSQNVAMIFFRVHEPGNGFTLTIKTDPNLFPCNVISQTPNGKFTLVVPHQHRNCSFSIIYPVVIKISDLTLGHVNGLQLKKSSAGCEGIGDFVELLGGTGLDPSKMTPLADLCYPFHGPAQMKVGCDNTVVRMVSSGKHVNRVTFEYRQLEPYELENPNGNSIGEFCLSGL

[2] = target: T1, Corticotropin-releasing factor receptor 2/Corticotropin-releasing factor-binding protein; assay: Dose Response confirmation of uHTS hits for small molecule antagonists of the CRF-binding protein and CRF-R2 receptor complex.; assay type: functional; details: read-out: IC50_Mean
[3] = Luminescence Cell-Based Dose Confirmation HTS to Identify Inhibitors of Platelet Dense Granule Release. [Related pubchem assays: 1663 (Primary HTS), 1678 (Summary of Project)]; assay type: functional
[4] = target: Luciferin 4-monooxygenase (Photinus pyralis, UniProt P08659); assay: firefly luciferase enzyme inhibitors, dose response, biochemical, luminescence (AID 1891)
[5] = growth suppression of PTEN-null colon cells, dose response, cell-based, HCT116 PTEN knockout (AID 1047); assay type: functional;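 also: HCT116 colon tumor cells with PTEN knocked out; cells exposed to compound for 60 hours before readout; potency for loss of cell viability measured by luminescence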
[6] = growth suppression of beta-catenin-knockout colon cells, dose response, cell-based, HCT116, human colon tumor (AID 1045); assay type: functional;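 also: HCT116 colon tumor cells with beta catenin knocked out; cells exposed to compound for 60 hours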
[7] = cells; assay type: functional
[8] = inhibitors of intracellular T. cruzi replication, confirmation, NIH3T3 host cells, beta-gal luminescence (AID 2044); assay type: functional, cell-based;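 also: intracellular parasites grown in NIH/3T3 mouse fibroblasts as host cells; luminescent beta-galactosidase reporter signal from transgenic T. cruzi replicating inside host cells; inhibitors lower the luminescence signal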
[9] = cytotoxicity toward NIH3T3 fibroblasts, dose response, counter-screen, cell-based, ATP luminescence, mouse fibroblasts (AID 2010); assay type: functional;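 also: cells exposed to compound for about 90 hours before reading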
[10] = target: T2, Heat shock factor protein 1 (Mus musculus, UniProt P38532); assay: inhibition of MG132-induced HSE-luciferase signal, confirmation, cell-based, NIH3T3, luminescence, dose retest (AID 2382); assay type: functional;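 also: NIH3T3 fibroblasts with HSF1-driven luciferase reporter stressed by proteasome inhibitor MG132; luminescence from HSF1-driven luciferase expression after 8 hours of MG132 stress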
T2 sequence (P38532 whole entry): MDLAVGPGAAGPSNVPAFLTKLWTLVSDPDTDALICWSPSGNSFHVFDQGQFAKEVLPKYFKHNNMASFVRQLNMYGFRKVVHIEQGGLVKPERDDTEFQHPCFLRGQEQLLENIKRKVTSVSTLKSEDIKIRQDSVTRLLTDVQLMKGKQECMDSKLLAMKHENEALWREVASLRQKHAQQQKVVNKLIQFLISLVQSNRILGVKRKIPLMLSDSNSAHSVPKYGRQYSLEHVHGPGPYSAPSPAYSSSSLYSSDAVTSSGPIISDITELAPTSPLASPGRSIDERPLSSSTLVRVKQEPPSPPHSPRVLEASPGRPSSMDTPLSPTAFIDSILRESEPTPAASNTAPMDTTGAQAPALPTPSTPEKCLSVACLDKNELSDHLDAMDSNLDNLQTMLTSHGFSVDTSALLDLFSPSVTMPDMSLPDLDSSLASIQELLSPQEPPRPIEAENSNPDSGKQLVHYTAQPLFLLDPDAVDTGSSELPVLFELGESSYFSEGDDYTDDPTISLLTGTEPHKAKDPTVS

[11] = system: H9c2; assay: cells; assay type: functional, cell-based; details: Rattus norvegicus, H9c2, Myocardium;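 also: confirmatory concentration-response retest of ultra-high-throughput screening hits for modulation of myocardial damage; cell death induced by hydrogen peroxide oxidative stress; compound pretreatment for 60 min then peroxide exposure for 2 h; potency is for protecting the cells against peroxide damage rather than for killing them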
[12] = HEp-2 cell cytotoxicity, dose response, cytotoxicity control for RSV inhibitor project, HTS (AID 2410); assay type: functional; details: human respiratory syncytial virus
[13] = target: Cytochrome P450 2D6 (Homo sapiens, UniProt P10635);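 also: CYP2D6 member of a cytochrome P450 panel assay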
Chain of Cytochrome P450 2D6 (P10635 whole entry): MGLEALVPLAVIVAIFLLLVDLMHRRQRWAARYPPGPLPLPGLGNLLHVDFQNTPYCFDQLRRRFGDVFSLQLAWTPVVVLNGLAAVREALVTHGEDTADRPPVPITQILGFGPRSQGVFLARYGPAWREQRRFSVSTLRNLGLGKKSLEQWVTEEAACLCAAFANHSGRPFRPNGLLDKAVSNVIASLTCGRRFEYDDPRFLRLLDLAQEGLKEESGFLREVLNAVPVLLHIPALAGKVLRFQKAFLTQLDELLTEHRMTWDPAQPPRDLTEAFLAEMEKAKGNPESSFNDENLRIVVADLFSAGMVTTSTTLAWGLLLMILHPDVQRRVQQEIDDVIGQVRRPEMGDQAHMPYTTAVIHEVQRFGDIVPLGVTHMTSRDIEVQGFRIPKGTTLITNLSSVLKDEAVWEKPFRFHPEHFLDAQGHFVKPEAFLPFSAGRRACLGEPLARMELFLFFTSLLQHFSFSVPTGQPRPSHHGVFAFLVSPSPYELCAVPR

Chain of Luciferin 4-monooxygenase (P08659 whole entry): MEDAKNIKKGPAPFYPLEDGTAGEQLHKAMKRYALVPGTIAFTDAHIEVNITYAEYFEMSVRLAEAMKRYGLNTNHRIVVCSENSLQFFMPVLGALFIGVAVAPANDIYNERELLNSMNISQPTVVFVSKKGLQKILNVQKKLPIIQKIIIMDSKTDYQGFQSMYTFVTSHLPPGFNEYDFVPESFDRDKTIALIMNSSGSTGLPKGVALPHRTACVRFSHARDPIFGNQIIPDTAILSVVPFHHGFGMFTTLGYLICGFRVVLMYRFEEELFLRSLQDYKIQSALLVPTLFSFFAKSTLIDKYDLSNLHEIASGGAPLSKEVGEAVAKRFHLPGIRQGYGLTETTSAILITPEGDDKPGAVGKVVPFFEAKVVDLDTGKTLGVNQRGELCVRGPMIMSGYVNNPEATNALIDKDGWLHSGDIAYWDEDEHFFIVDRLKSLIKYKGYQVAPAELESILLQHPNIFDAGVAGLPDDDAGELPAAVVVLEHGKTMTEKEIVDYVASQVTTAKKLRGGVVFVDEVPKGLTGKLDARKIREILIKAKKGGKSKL

Row | Compound | EC50 [1] | IC50 [2] | EC50 [3] | EC50 [4] | further results
1 | Cc1noc(C)c1S(=O)(=O)N1CCC(C(=O)N2CCN(c3ccc(F)cc3)CC2)CC1 | > 53 µM (inactive) | > 47.1 µM (inactive) |  |  | 
2 | COc1ccc(C(=O)Nc2sc(C)c(C)c2CN2CCOCC2)cc1 |  |  | 12.6 µM (active) | > 112 µM (not active) | 
3 | CCN(CC)C(=O)CSc1ncnc2c(-c3ccc(OC)cc3)nsc12 |  |  | > 112 µM (not active) | > 112 µM (not active) | 
4 | CCCCc1ccc(C2C3=C(CC(C)(C)CC3=O)N=C3C2=C(O)c2ccccc23)cc1 (stereo unspecified) |  |  |  |  | EC50 [5]: 13.2 µM (active); EC50 [6]: 18.2 µM (active)
5 | COc1ccc(-c2nnc(NC(=O)C3=COCCO3)o2)cc1 |  |  |  |  | IC50 [7]: 8.62 µM (active)
6 | O=C(Nc1cnn(Cc2c(Cl)cccc2Cl)c1)C(c1ccccc1)c1ccccc1 |  |  | > 112 µM (not active) | > 112 µM (not active) | EC50 [8]: 2.06 µM (active); EC50 [9]: > 60 µM (not active)
7 | COc1cccc(N2CCN(Cc3cccc(Cl)c3)CC2)c1 |  |  | > 112 µM (not active) | > 112 µM (not active) | 
8 | COc1ccc(C(C)=O)cc1CSc1nnc2c(Cl)cc(Cl)cn12 | > 53 µM (inactive) | > 47.1 µM (inactive) |  |  | 
9 | CCOc1ccc(-c2cc(C(=O)NCC3CCCO3)c3ccccc3n2)cc1 (stereo unspecified) |  |  | > 112 µM (not active) | 47.2 µM (active) | 
10 | O=C(Nc1ccccc1N1CCCCC1)C1CCN(C(=O)c2ccc(Cl)cc2)CC1 | > 53 µM (inactive) | > 47.1 µM (inactive) |  |  | EC50 [10]: > 195 µM (not active)
11 | O=C(COc1ccccc1F)N1CCN(CCN2C(=O)c3cccc4cccc(c34)C2=O)CC1 | > 53 µM (inactive) | > 47.1 µM (inactive) |  |  | 
12 | Cn1c(=O)oc2cc(S(=O)(=O)N3CCN(c4cccc(Cl)c4)CC3)ccc21 |  |  | > 112 µM (not active) | > 112 µM (not active) | 
13 | C#CCN1C(=O)C(O)(CC(=O)c2ccc(OC)c(OC)c2)c2ccccc21 (stereo unspecified) |  |  |  |  | EC50 [5]: 18 µM (active); EC50 [6]: 21.2 µM (active)
14 | COc1ccc(-c2cc(C(F)(F)F)c(C#N)c(SCC(=O)Nc3nc(C)co3)n2)cc1 |  |  |  |  | EC50 [5]: 10.9 µM (active); EC50 [6]: 9.24 µM (active)
15 | CC(C)c1ccc(NC(=S)NN2CCOCC2)cc1 | > 53 µM (inactive) | > 47.1 µM (inactive) |  |  | 
16 | Cc1ccccc1CNC(=O)Nc1cccs1 | > 53 µM (inactive) | > 47.1 µM (inactive) |  |  | 
17 | Cc1ccc(CNC(=O)CN(c2ccc(C)cc2)S(=O)(=O)c2c(C)nn(C)c2C)cc1 | > 53 µM (inactive) | > 47.1 µM (inactive) |  |  | 
18 | Cc1ccc(S(=O)(=O)CCC(=O)Nc2cc(Cl)ccc2-n2cncn2)cc1 | > 53 µM (inactive) | > 47.1 µM (inactive) |  |  | 
19 | Cc1ccc(-n2nc3ccc(NC(=O)/C=C/c4ccco4)cc3n2)cc1C |  |  |  |  | EC50 [5]: 8.83 µM (active); EC50 [6]: 11.7 µM (active)
20 | CC(=O)N1N=C(C)CC1c1ccc(OCc2ccccc2)cc1 (stereo unspecified) | > 53 µM (inactive) | > 47.1 µM (inactive) |  |  | 
21 | COc1cccc(-c2nn(-c3ccccc3)cc2C(=O)O)c1 |  |  | > 112 µM (not active) | > 112 µM (not active) | 
22 | Cn1c(=O)oc2cc(S(=O)(=O)NCCC(=O)NCc3ccc(F)cc3)ccc21 | > 53 µM (inactive) | > 47.1 µM (inactive) |  |  | 
23 | C=CCn1c(SCc2ccc(F)cc2)nc2c1c(=O)[nH]c(=O)n2C | > 53 µM (inactive) | > 47.1 µM (inactive) |  |  | 
24 | CC(C)c1nnc(NC(=O)CCC(=O)N2CCN(c3ccc(F)cc3)CC2)s1 |  |  | > 112 µM (not active) | > 112 µM (not active) | 
25 | Cc1ccc(-c2nn(C)c(=O)c3ccccc23)cc1CO | > 53 µM (inactive) | > 47.1 µM (inactive) |  |  | 

Row | Compound | EC50 [1] | IC50 [2] | EC50 [3] | EC50 [4] | further results
26 | CCOC(=O)c1c(C)c(-c2ccccc2)n(CC(=O)N2CCCC2)c1C |  |  | > 112 µM (not active) | > 112 µM (not active) | 
27 | O=C(CN1CCN(C(=O)c2ccco2)CC1)Nc1c2c(nc3c1CCC3)CCCC2 | > 53 µM (inactive) | > 47.1 µM (inactive) |  |  | 
28 | Cc1nnc(SCC(=O)N(C)c2c(N)n(Cc3ccccc3)c(=O)[nH]c2=O)n1Cc1ccccc1 | > 53 µM (inactive) | > 47.1 µM (inactive) |  |  | 
29 | Cc1nc2cc(N3CCCCC3)c(NC(=O)c3ccncc3)cc2c(=O)n1Cc1ccc(Cl)cc1 |  |  |  |  | EC50 [5]: 3.49 µM (active); EC50 [6]: 3.8 µM (active)
30 | COc1cc(/C=C(\C#N)c2nc3ccccc3[nH]2)cc(Br)c1OCc1ccccc1 |  |  |  |  | EC50 [5]: 15.8 µM (active); EC50 [6]: 16.7 µM (active)
31 | CCOC(=O)C(C)Oc1cccc2c(=O)n(CC(=O)NCCc3ccc(OC)c(OC)c3)ccc12 (stereo unspecified) |  |  | > 112 µM (not active) | > 112 µM (not active) | 
32 | COc1ccccc1CNC(=O)c1cccc(N(C)C)c1 |  |  | > 112 µM (not active) | > 112 µM (not active) | 
33 | CC(=O)c1cccc(Nc2nc3ccccc3n3cnnc23)c1 | > 53 µM (inactive) | < 0.368 µM (active) |  |  | IC50 [11]: > 79 µM (inactive); CC50 [12]: 43.9 µM (active)
34 | CCCCOC(=O)c1ccc(NC(=O)c2nn(C)cc2Br)cc1 |  |  |  |  | IC50 [7]: 12.2 µM (active)
35 | CCCCn1c(SCN2C(=O)c3ccccc3C2=O)nc2cc(S(N)(=O)=O)ccc21 |  |  | > 112 µM (not active) | > 112 µM (not active) | 
36 | Cc1cc(F)ccc1NC(=O)c1cc(S(=O)(=O)N2CCCC2)cn1C |  |  | > 112 µM (not active) | > 112 µM (not active) | 
37 | O=C1N(c2ccc3c(c2)OCCO3)C(c2ccccc2)C1(F)F (stereo unspecified) |  |  |  |  | IC50 [7]: 7.43 µM (active)
38 | CCOC(=O)c1csc(-c2snnc2C)n1 |  |  |  |  | IC50 [7]: 13.2 µM (active)
39 | Cc1ccc(C(=O)N2CCN(c3ccc([N+](=O)[O-])c(NCc4ccco4)c3)CC2)cc1 |  |  | > 112 µM (not active) | 41.3 µM (active) | 
40 | COc1cc2c(cc1OC)-c1cc(NC3CC3)nc(=O)n1CC2 |  |  | 17.6 µM (active) | > 112 µM (not active) | 
41 | CCCCC1(CCCC)C(=O)N=C(Nc2cccc(C)c2)NC1=O | 3.98 µM (active) | > 47.1 µM (inactive) |  |  | AC50 [13]: 14.1 µM (inconclusive); EC50 [5]: 12.1 µM (active); EC50 [6]: 12.2 µM (active)
42 | CN(Cc1cnccn1)C(=O)CC1C(=O)NCCN1Cc1cccc(Oc2ccccc2)c1 (stereo unspecified) |  |  | > 112 µM (not active) | > 112 µM (not active) | 
43 | CCC(C)C(=O)Nc1nnc(SCC(=O)NC(C)(C)C)s1 (stereo unspecified) | > 53 µM (inactive) | > 47.1 µM (inactive) |  |  | 
44 | Cc1ncsc1CCOC(=O)c1ccc([N+](=O)[O-])cc1 |  |  |  |  | IC50 [7]: 7.56 µM (active)
45 | CCCN(CCC)S(=O)(=O)c1ccc(C(=O)Nc2nnc(CSC)o2)cc1 |  |  |  |  | EC50 [5]: 14.2 µM (active); EC50 [6]: 12.7 µM (active)
46 | CC(=O)C1=C(C)N=C(S)NC1c1cc([N+](=O)[O-])ccc1O (stereo unspecified) | > 53 µM (inactive) | > 47.1 µM (inactive) |  |  | 
47 | CCOC(=O)c1c(Nc2ccc(Cl)cc2)sc(/C=C2\C=Nc3ccccc32)c1O |  |  |  |  | EC50 [5]: 6.61 µM (active); EC50 [6]: 6.74 µM (active)
48 | COc1cccc(C(=O)N/N=C/C(Br)=C/c2ccccc2)c1 |  |  |  |  | EC50 [5]: 6.24 µM (active); EC50 [6]: 6.47 µM (active)
49 | CCc1nnc(N/N=C/c2ccc(-c3ccc([N+](=O)[O-])cc3)o2)n1N |  |  |  |  | IC50 [7]: 12.6 µM (active)
50 | O=C(Nc1nccs1)c1ccccn1 |  |  |  |  | IC50 [7]: 9.47 µM (active)

Source: ChEMBL document CHEMBL1201862, “PubChem BioAssay data set” (2004)
